≈ marks a conversion by molar mass, not a printed value. Where two headings read alike, the source gives them in different places.

As a reminder, the ED50 is the dose at which the effect has come halfway, by size or by number of responders.

Data set [1] deals with Schistosoma mansoni adult schistosomes (49-day-old). The experiment in a line: effect on adult schistosomes (49-day-old) in mice. The note with it: single 400 mg/kg per os. The data set is classed as in vivo. On the procedure:
Mice were infected with 100 Schistosoma mansoni cercariae […]. Each group was treated per os with OZ compounds at single doses of 200, 400, and 600 mg/kg. […] All groups were killed 4 weeks after treatment and the liver and intestine were removed and separated. The liver and intestine were compressed and alive male and female worms could be seen and counted.

Data set [2] has as its system P. falciparum NF54 strain (sensitive to standard antimalarials). Put plainly: semiautomated microdilution assay, [3H]-hypoxanthine incorporation, NF54 strain. Type of data set: cell-based, Plasmodium falciparum. The note with it: NF54 strain, 72 h incubation. In a few lines:
(§1)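 Logit regression analysis was used to estimate IC50 values. Parasites were intraerythrocytic forms from asynchronous stock cultures, and compounds were tested by semiautomated microdilution.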
On the technique in general: In broth dilution the organism is exposed to a series of concentrations in liquid medium.

In data set [3] the test system is ANKA strain of P. berghei. The experiment in a line: single dose STI in vivo screen in infected mice. Set-up: species or system Plasmodium berghei. In a few lines: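 Groups of 3-5 Moro SPF or NMRI mice infected with the ANKA strain of P. berghei received a single dose of trioxolane on day one post-infection. The compound was given in 3% ethanol and 7% Tween 80 or in SSV (0.5% w/v CMC, 0.5% v/v benzyl alcohol, 0.4% v/v Tween 80, 0.9% w/v sodium chloride in water). Antimalarial activity was scored as percent reduction in parasitemia on day three and as survival time versus untreated controls. Survival to day 30 counted as cure.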

A further data set is described as follows: dosing in dogs. The data set is classed as in vivo. The following applies: dog. From the text: (§2) Artesunate is listed as a reference compound.
Data set [4] concerns Schistosoma mansoni 21-day-old schistosomules. Put plainly: effect on 21-day-old schistosomules in mice. The note with it: single 200 mg/kg per os, female mice. The data set is classed as in vivo. On the procedure:
All groups were killed 4 weeks after treatment and the liver and intestine were removed and separated. The liver and intestine were compressed and alive male and female worms could be seen and counted. The effect of the compounds was evaluated by mean total and female worm burden.

In data set [5] the test system is P. falciparum K1 strain (Thailand resistant to chloroquine). The experiment in a line: semiautomated microdilution assay, [3H]-hypoxanthine incorporation, K1 strain. Type of data set: cell-based, Plasmodium falciparum. The following applies: K1 strain, 72 h incubation. The procedure, abridged: as §1
A short description of the next data set: dosing in rats. Type of data set: in vivo. The note with it: rat.
From the text: as §2

The test system of data set [6] is parasitemia (malaria infection). Put plainly: onset of action and recrudescence experiments. The data set is classed as in vivo. The note with it: for Time of Recrudescence: single 100 mg/kg po (SSV) on day +3 post-infection, recrudescence = >5% parasitemia, followed up to 60 days, (n/5) = animals. The method, then: The onset of drug action was determined after a single fixed dose of 100 mg/kg (SSV vehicle) po to groups of five animals on day +3 post-infection (day 0).

Data set [7] relates to ANKA strain of Plasmodium berghei. Put plainly: single dose ED50/ED90/ED99 determinations in infected mice. The data set is classed as in vivo. The note with it: single dose po in SSV, mice, percent reduction in parasitemia on day three post-infection. The procedure, abridged: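 Mice (Moro SPF or NMRI, n=3 per group) infected with P. berghei ANKA received a single dose on day 1 post-infection, vehicle 0.5% CMC/0.5% benzyl alcohol/0.4% Tween 80/0.9% NaCl in water. Read-out is percent reduction in parasitemia on day 3; ED values by nonlinear fitting.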

Data set [8] relates to P. berghei ANKA strain. Put plainly: treatment: 3x3 mg/kg and 3x1 mg/kg po divided doses in infected mice. The data set is classed as in vivo, Plasmodium berghei. The following applies: for Activity (%) p.o. SSV: percent reduction of parasitemia day 4. In a few lines:
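NMRI mice infected i.v. with 2×10^7 P. berghei ANKA-parasitized erythrocytes on day 0, then dosed orally in SSV vehicle at 3×3 or 3×1 mg/kg on days 1–3. Day-4 Giemsa smears gave percent parasitemia reduction versus untreated controls; survival to day 30 counted as cure.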

The test system of data set [9] is P. berghei ANKA strain. Put plainly: prophylactic activity, single 100 mg/kg po dose before infection. Type of data set: in vivo, Plasmodium berghei. The following applies: for Prophylactic Activity (%): reduction of parasitemia day 3 post-infection. The method, then:
Moro NMRI male mice (Fü Albino specific pathogen free) weighing 18±2 g were infected intravenously (i.v.) with 2×10^7 P. berghei ANKA strain-infected erythrocytes from donor mice on day 0 of the experiment. From donor mice with circa 30% parasitemia, heparinized blood was taken and diluted in physiological saline to 10^8 parasitized erythrocytes per ml. An aliquot (0.2 ml) of this suspension was injected i.v. into experimental and control groups of mice. In untreated control mice, parasitemia rose regularly to 40 to 50% by day 3 post-infection and 70 to 80% by day 4 post-infection. The mice died between days 5 and 7 post-infection. Throughout the experiments, mice were kept in groups of three or five animals in Makrolon type II cages in an air-conditioned animal room at 22 to 23° C. A diet with p-aminobenzoic acid (PABA) of 45 mg (NAFAG FUTTER© food N^o 9009 PAB-45) per kg of body weight, and tap water is available ad libitum.
OZ compounds were prepared at an appropriate concentration, either as a solution or a suspension containing SSV (0.5% w/v CMC, 0.5% v/v benzyl alcohol, 0.4% v/v Tween 80, and 0.9% w/v sodium chloride in water). They were administered per os (p.o.) in a total volume of 0.01 ml per gram of mouse. The activity of the compound was determined by a variety of methods outlined in subsequent sections. Survival time was also recorded, and survival to day 30 post-infection was considered to be a cure.
Prophylactic activities of the compounds were compared after administering po single dose of 100 mg/kg to different groups of five animals at various times before infection. All groups including an untreated control group, were then infected at the same time. Parasitemia was determined for each animal on day 3 post-infection, and percent of reduction of the level of parasitemia compared to levels for animals given no drug is determined.

Data set [10] in a line: chemical properties of OZ277 salts. The note with it: salt of OZ277.
Setting [11] is: 3 × 1 mg/kg days 1, 2, 3 post-infection.
Where [12] appears, read: 3 × 3 mg/kg days 1, 2, 3 post-infection.

Turning to `NC(=O)CNC[C@H]1CC[C@]2(CC1)OOC1(O2)C2CC3CC(C2)CC1C3` (stereo partly drawn) [OZ256], in data set [1], the “% reduction of adult worms growth at day 49 after per os application of 400 mg/kg, TWR (%)” value stood at 10% and the “adult worms at day 49, per os 400 mg/kg, DEAD WORM (%)” value is 19%. For the same compound, the “IC50 (ng/ml) NF54” value in [2] stood at 0.2 ng/mL (≈ 0.571 nM). Moreover, in data set [3] (percent reduction in parasitemia day 3 post-infection, single 10 mg/kg po in 3% ethanol and 7% Tween 80, mice), the “Activity (%) po” value came to 99.70%. The “Activity (%) sc” value in [3] (percent reduction in parasitemia day 3 post-infection, single 10 mg/kg sc in 3% ethanol and 7% Tween 80, mice) was determined as 99.95%. The “Activity (%) SSVpo” value in data set [3] (percent reduction in parasitemia day 3 post-infection, single po dose in standard suspending vehicle (SSV), mice) worked out at 99.67%. In data set [3] (single 10 mg/kg po in 3% ethanol and 7% Tween 80, untreated control 5.6 ± 0.3), the “Survival (days) po” value came to 8.7 days. Besides, in data set [3] (single 10 mg/kg sc in 3% ethanol and 7% Tween 80, untreated control 5.6 ± 0.3), the “Survival (days) sc” value amounted to 9.7 days. The “Survival (days) SSVpo” value in data set [3] (single po dose in SSV, untreated control 5.6 ± 0.3) was found to be 8.7 days. In “dosing in dogs” (IV 10 mg/kg), the “IV t1/2 (10 mg/kg)” value worked out at 1.42 h. The “Oral t1/2 (10 mg/kg)” value in the data set “dosing in dogs” (oral 10 mg/kg) turned out to be 1.38 h. The “Oral Bioavailability 10 mg/kg” value in the data set “dosing in dogs” (oral 10 mg/kg, OZ 279, OZ 256, OZ 209 values flagged (V)) is on record as 42.0%. For the same compound, the “Oral Bioavailability 25 mg/kg” value in the data set “dosing in dogs” (oral 25 mg/kg, OZ 279, OZ 256, OZ 209 values flagged (V)) was 38.3%. For the same compound, in data set [4], the “% reduction of schistosomule growth at day 21 after per os application of 200 mg/kg, FWR (%)” value is 86% and the “% reduction of schistosomule growth at day 21 after per os application of 200 mg/kg, TWR (%)” value is 85%. Moreover, in data set [5], the “IC50 (ng/ml) K1” value was found to be 0.3 ng/mL (≈ 0.856 nM). In “dosing in rats” (IV 10 mg/kg), the “IV t1/2 (10 mg/kg)” value is 1.57 h. In addition, the “Oral Bioavailability 10 mg/kg” value in the data set “dosing in rats” (oral 10 mg/kg) is on record as 18.6%. Also, in “dosing in rats” (oral 25 mg/kg), the “Oral Bioavailability 25 mg/kg” value worked out at 51.9% and the “Oral t1/2 (25 mg/kg)” value was 1.22 h.

For the compound `O=C(C[C@H]1CC[C@]2(CC1)OOC1(O2)C2CC3CC(C2)CC1C3)NO` (stereo partly drawn) [OZ175], the “IC50 (ng/ml) NF54” value in data set [2] was determined as 2.0 ng/mL (≈ 5.93 nM). Also, the “Time of Recrudescence” value in [6] is 13.0 days. Besides, in data set [5], the “IC50 (ng/ml) K1” value came to 1.4 ng/mL (≈ 4.15 nM). In [7], this compound gave an ED50 of 3.5 mg/kg, an ED90 of 6.2 mg/kg and an ED99 of 9.9 mg/kg.

For `OC(c1cc(C(F)(F)F)nc2c(C(F)(F)F)cccc12)C1CCCCN1` (stereo not drawn) [MFQ, mefloquine, reference compound], the results for the “Survival (days) p.o. SSV” value in the data set on P. berghei ANKA strain [8] (setting [11]) and with P. berghei ANKA strain [8] (setting [12]) were 6.2 days and 12 days, respectively. For the same compound, the “Activity (%) p.o. SSV” value was 2% with P. berghei ANKA strain [8] (setting [11]) and 98% in the data set on P. berghei ANKA strain [8] (setting [12]). In [2] (Plasmodium falciparum, read-out: IC50 (ng/ml) NF54), the IC50 worked out at 5 ng/mL (≈ 13.2 nM). The “Activity (%) 3 mg/kg SSV po” value in data set [3] (percent reduction in parasitemia day 3 post-infection, single 3 mg/kg po in SSV) was determined as 9%. Moreover, the “Survival (days) 3 mg/kg SSV po” value in [3] (single 3 mg/kg po in SSV) is 6.3 days. For the same compound, the “Survival (days) 10 mg/kg SSV po” value in [3] (single 10 mg/kg po in SSV) amounted to 17 days. Also, the “Time of Recrudescence” value in data set [6] stood at 28.0 days. Besides, the “onset of action (decline in parasitemia)” value in data set [6] (single 100 mg/kg po (SSV), parasitemia monitored 12, 24, 48 h after treatment) was “slow onset of action”. Also, in [7] (Plasmodium berghei, read-out: ED50), the ED50 worked out at 4 mg/kg. The ED90 in data set [7] is listed as 5.4 mg/kg. In data set [7], this compound came in with an ED99 of 6.8 mg/kg. Also, the “Prophylactic Activity (%)” value came out at 100% in the data set with P. berghei ANKA strain [9] (single 100 mg/kg po 24 h before infection), 99.92% in the data set on P. berghei ANKA strain [9] (single 100 mg/kg po 48 h before infection), 99.97% with P. berghei ANKA strain [9] (single 100 mg/kg po 72 h before infection) and 100% in the data set on P. berghei ANKA strain [9] (single 100 mg/kg po at 0 h). The “duration of prophylactic protection” value in the data set with P. berghei ANKA strain [9] (single 100 mg/kg po before infection) was 3 days.

As to `CC(C)(N)CNC(=O)CC1CCC2(CC1)OOC1(O2)C2CC3CC(C2)CC1C3.O=C(O)CCC(=O)O` (stereo not drawn) [Succinate], in [10], the “Chemical Stability” value is recorded as “Stable”, the Crystallinity entry was “Crystalline”, the “Particle size (90% of particles less than)” value is given as “˜150 μm” and the Physical stability entry is given as “Stable”. The “Stability in analytical solution (up to 24 hrs)” value in [10] is given as “Stable”.

Regarding `CC(C)(N)CNC(=O)CC1CCC2(CC1)OOC1(O2)C2CC3CC(C2)CC1C3.Cc1ccc(S(=O)(=O)O)cc1` (stereo not drawn) [Tosylate], in data set [10], the “Chemical Stability” value is recorded as “Stable”, the Crystallinity result is given as “Crystalline”, the “Particle size (90% of particles less than)” value is “˜50 μm” and the Physical stability entry was “Stable”. Also, the “Stability in analytical solution (up to 24 hrs)” value in [10] is “Stable”.
